pIC50: −log10 of the molar value. Where “and” joins values, the source holds several entries; their conditions need not be identical. Equal entries are not always repeated. Structures can show the parent of a compound that is named as a salt. Where two headings read alike, the source gives them in different places.
How the values were obtained:
human complement = test: Inhibition of complement-mediated hemolysis, human serum, sensitized sheep erythrocytes; format: biochemical
Experimental: The ability to inhibit complement was also tested by assaying for inhibition of complement-mediated red cell lysis (hemolysis). The inhibition of hemolysis was determined as a function of compound concentration. The compounds to be tested were diluted in 0.1M Hepes buffer (0.15N NaCl, pH 7.4), and 50 μl were added to each well of a V-bottom microtiter plate. Human serum, used as the complement source, was diluted 1 to 500 in Hepes buffer, and 50 μl were added to each well. Next, commercially available sheep erythrocytes with anti-sheep antibody (Diamedix Cat. No. 789-001) were used as received and added at 100 μl/well to initiate the complement pathway leading to hemolysis. The plate was incubated for 60 minutes at 37° C. and then centrifuged at 500×g for 10 minutes. The supernatants were removed and placed in a flat-bottom microtiter plate. The extent of hemolysis was measured as a function of the sample absorbance at 410 nm. The maximal absorbance (corresponding to maximal hemolysis), Amax, was obtained from the absorbance value of an erythrocyte sample containing only human serum, AS, less the absorbance of a sample containing only the red cells, A0. Thus, Amax =AS -A0. The difference between the absorbance of an erythrocyte sample containing both human serum and inhibitive compound, and the absorbance of a cell sample containing inhibitive compound only, was defined as Asample. The inhibition, IH, was expressed as the fraction (Amax -Asample)/Amax, and IH50 was defined as the concentration of inhibitive compound required to produce a value of IH=1/2.
The 4 substituted spirobenzofuran compounds of example 7 and the disubstituted spirobenzofuran compounds of example 8 were tested for their capacity to inhibit complement-mediated lysis of sheep red blood cells (SRBC) as described in Section 6.6.2 supra with the modification that the human serum used as the complement source was diluted to 1 to 100 in Hepes buffer, instead of […]. The results of the hemolysis assays are shown in FIG. 8 and Tables XI and XII.

[1] = system: guinea pig serum complement; conditions: sensitized sheep erythrocytes, read-out: concentration reducing hemolysis 50%; cited from earlier work
C5a production = test: Inhibition of C5a production in human serum (aggregated IgG, RIA); format: biochemical; conditions: concentration inhibiting C5a production 50% relative to control
Experimental: (§1) The ability to inhibit complement was tested by assaying for specific inhibition of C3a and C5a production. For all experiments, a single human serum pool, to be used as a source of complement, was aliquoted and stored frozen at -70° C. Human IgG was heat-aggregated, aliquoted, and stored frozen at -70° C. For each experiment, serum aliquots were equilibrated at 37° C. with varying concentrations of the compounds tested. The classical complement pathway was initiated by the addition of aggregated human IgG. Control samples containing no IgG were always included. After a fixed reaction time of 10 minutes (determined in an earlier time-course study to provide a convenient time interval during which the production of C5a or C3a is nearly complete, i.e., greater than 90%), the levels of the released complement peptides (C5a or C3a) were determined by radioimmunoassay using commercially available radioimmunoassay (RIA) kits (C5a RIA, UpJohn Cat. No. 3250-02; C3a RIA, UpJohn Cat. No. 3245-01; C5a RIA, Amersham Cat. No. RPA.520; C3a RIA, Amersham RPA.518).
(§2) Since a competitive immunoassay was used, complement peptide (C5a and C3a) concentrations varied inversely with the counts. The Counts Bound (CB) for a sample was defined as the total counts (in counts per minute, cpm) measured in the pellet minus the counts measured in a nonspecific binding (NSB) control. The NSB control was a sample containing only tracer peptide (^125 I-labelled) and second precipitating antiserum; it contained no C5a- or C3a-specific antiserum.
(§3) The y-axis in FIG. 2 represents the fraction inhibition. The fraction inhibition is equal to the Counts Bound (CB) for a "sample," less the CB in the "sample with no added compound," divided by the CB for the "no IgG control" less the CB in the "sample with no added compound." [formula]
(§4) FIG. 2 is representative of the data plots obtained from the assays described above.

C3a production = test: Inhibition of C3a production in human serum (aggregated IgG, RIA); format: biochemical; conditions: at a concentration of about 8.5 mM
Experimental: as §1, §2, §3, §4

[2] = system: human peripheral blood lymphocytes (PBL); test: Inhibition of proliferation of peripheral blood lymphocytes, 3H-thymidine incorporation; format: cell-based; conditions: Lymphocyte, Table IX, 72 h
Experimental: The proliferation of human peripheral blood lymphocytes (PBL) in response to phytohemagglutinin (PHA, Well-come) or anti-CD3 monoclonal antibody (OKT-3, Ortho) was assessed by the incorporation of ^3 H-thymidine. Compound 11a was diluted in culture media to the desired concentrations, human PBL were added to a final concentration of 10^6 cells/ml, and then either PHA (Wellcome) or anti-CD3 (OKT3, Ortho) antibody (final concentration, […]) was added to initiate proliferation. The final volume per sample was 100 μl. The cells were incubated for 72 hours after stimulation, pulsed with 1 μCi ^3 H-thymidine per sample for 4 hours, harvested, and counted in a scintillation counter. […] Because cell viability was unaffected by the presence of 11a (see supra), the inhibition apparently was not due to cytotoxic effects.

factor I = target: T1, factor I (Homo sapiens, UniProt P05156); test: Inhibition of C3b proteolysis by factor I (SDS-PAGE densitometry); format: biochemical; conditions: sCR1 8 nM as cofactor, C3b 1.2 μM, factor I 0.1 μM, 60 min 37° C.; read-out: C3b cleavage by Factor I, concentration yielding 50% inhibition
T1 construct: purchased Cytotech, San Diego, Calif
T1 sequence (P05156 340-583 limits assumed): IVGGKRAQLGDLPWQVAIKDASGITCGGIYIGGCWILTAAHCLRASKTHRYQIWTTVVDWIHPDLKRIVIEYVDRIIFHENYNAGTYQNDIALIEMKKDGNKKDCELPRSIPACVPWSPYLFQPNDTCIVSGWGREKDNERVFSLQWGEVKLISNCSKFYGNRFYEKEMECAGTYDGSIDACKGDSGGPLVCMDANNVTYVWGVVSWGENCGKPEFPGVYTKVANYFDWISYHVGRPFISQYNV
Source text: The reactions were stopped by the addition of reducing SDS-PAGE sample buffer (Laemmli, 1970, Nature, 227:680-685) subjected to electrophoresis on 4-20% polyacrylamide gradient gels, visualized with Coomassie Blue stain, and quantitated by densitometry. Controls lacking factor I and controls with factor I but lacking test compounds were included. Results are reported as the concentration of test compound which inhibited approximately fifty percent (50%) of the C3b a-chain degradation, IC50.

[3] = system: hyperacute graft rejection; test: Guinea pig-to-rat cardiac transplant (discordant xenograft); format: in vivo; conditions: 28 mg/rat intravenous bolus; for Graft survival time: individual animals
Experimental: The effects of compounds 68 and 44a on hyperacute graft rejection were tested in a model of discordant xenografting. The methods were the same as described previously (Prewitt et al., 1991, Transplantation 52:868-873) except that the test compounds were substituted for the active agent (sCR1) of the earlier study. As indicated in the earlier study, male Lewis rats, 12-16 weeks of age, and male Hartley guinea pigs, 4-10 weeks of age (Charles River, Wilmington, Mass.) served as cardiac xenograft recipients and donors, respectively. Under Halothane anesthesia, heterotopic cardiac xenotransplantation was performed by a modification of the microvascular technique of Ono and Lindsey, 1990, J. Thorac. Cardiovas.
Cardiac xenografts were evaluated visually over the first 30 minutes following reperfusion and then, following abdominal closure, every 10 minutes by palpation until rejection. Rejection was defined as total cessation of cardiac xenograft contraction and was confirmed by direct visualization and histological examination. […] Control animals received similar volumes of PBS. Three (n=3) control animals were tested concurrent with the animals receiving compound 68; data from historic controls (n=13) subjected to the same procedure and previously reported (Pruitt et al., 1991, Transplantation 52:868-873) are also included for comparison. Table XV includes the xenograft survival times (minutes) for individual animals and the means and standard errors of the mean (SEM) for the various groups.

[4] = system: alternative complement pathway; test: Inhibition of alternative pathway mediated hemolysis, rabbit erythrocytes, human serum; format: biochemical; conditions: Table XIV, human serum 1 in 24, read-out: Alternative pathway AH50
Experimental: The capacity of the substituted dihydrobenzofurans to inhibit the alternative complement pathway was assessed using the modified method of Platts-Mills and Ishizaka, 1974, J. Immunol., 113:348-358. Essentially, rabbit erythrocytes were lysed using human serum as complement in gelatin veronal buffer (GVB, Sigma, St. Louis, Mo.) with added EGTA (ethylene glycol-bis[β-aminoethyl ether]N,N,N^1,N^1 -tetraacetic acid) and Mg^2+ to 8 mM and 2 mM, respectively. Rabbit erythrocytes (4.5×10^6 cells/ml), human serum (1 in 24 dilution), and the compounds to be tested were incubated one hour at 37° C. in a V-bottom microtiter plate, cells pelleted by centrifugation, the supernatants transferred to a flat-bottom microtiter plate, and the absorbance at 410 nm determined. Samples were paired with identical controls lacking human serum (complement-independent lysis). Both samples and controls were run in triplicate. Control values were subtracted from sample values and the fractional inhibition was determined relative to the uninhibited (no added compound) sample. Results are reported as the concentration of compound yielding fifty per cent (50%) inhibition, AH50. The AH50 values for several of the compounds are included along with the results of other in vitro assays in Table XIV.

rat complement = test: Inhibition of complement-mediated hemolysis, rat serum as complement source; format: biochemical; conditions: Table XIII; read-out: IH50 for Rat Complement
[5] = Table XI, human serum diluted 1 to 100, read-out: IH50 Mean
[6] = Table XIII, read-out: IH50 for Human Complement
[7] = Table XIV, read-out: Classical pathway IH50

pIC50 (C5a production) | Compound | pIC50 (human complement; Table VII, human serum, read-out: IHO50) | pIC50 [1] | inhibition of C3a production (C3a production) | pIC50 ([2]; PHA stimulation, read-out: IP50 PHA-stimulated PBL) | pIC50 ([2]; anti-CD3 (OKT-3) stimulation, read-out: IP50 OKT-3-stimulated PBL) | effectiveness in inhibiting complement-mediated hemolysis compared with K76COOH (human complement) | pIC50 (human complement; [5]) | pIC50 (human complement; [6]) | pIC50 (human complement; [7]) | pIC50 (factor I) | Graft survival time Mean ± SEM [3] [min] | graft survival relative to controls [3] | Graft survival time [3] | pIC50 [4] | pIC50 (rat complement) | pIC50 (human complement; Table XII, human serum diluted 1 to 100, read-out: IH50 Mean) | Graft survival time ([3]; SODIUM SALT)
2.52 | CC1CCC2C(C)(C)C(O)C(O)CC2(C)C12Cc1c(O)cc(C(=O)O)c(C=O)c1O2 (centres unmarked) [K-76 COONa, reference compound] | 3.24 | 3.47 | Only marginal inhibition | 3.30 | 3.30 | – | – | – | – | – | – | – | – | – | – | – | –
– | COc1cc(C(=O)O)c(C=O)c2c1CC1(CCCCC1)O2 [Compound 68, 6-carboxy-7-formyl-4-methoxyspiro[benzofuran-2(3H)-cyclohexane]] | – | – | – | – | – | more effective | 3.79 | 4.00 and 3.79 | 3.80 | 3.82 | 142 ± 76 | prolonged graft survival times in 2 of the 3 animals | 7 min and 150 min and 270 min | 2.87 | – | – | –
– | sCR1: soluble human recombinant complement receptor type 1, used as a positive control in the in vitro assays | – | – | – | – | – | – | – | 9.05 | – | – | – | – | – | – | 8.82 | – | –
– | COc1cc(C(=O)O)cc2c1CC1(CCCCC1)O2 [Compound 44a, 6-CARBOXYL-4-METHOXYSPIRO[BENZOFURAN-2(3H)-CYCLOHEXANE] SODIUM SALT] | – | – | – | – | – | – | 3.28 | 3.27 | 3.28 | 2.56 | 8 | – | – | < 2.30 | 1.76 | 3.27 | 7 min and 9 min

Source: US5808109A, “Compounds that inhibit complement and/or suppress immune activity” (T Cell Sciences, Inc., priority 1995, dated 1998)
